Experiment [1] concerns platelets. The experiment in a line: Ex vivo inhibition of platelet aggregation (Table IV). In kind it is in vivo, dog. To be noted: for ex vivo inhibition of platelet aggregation (%): dose as listed per peptide in Table IV; for ex vivo platelet aggregation: doses of Table IV. How it is done:
Platelet aggregation assays were performed following the methods of this Example or those of Example IX.G. Platelet aggregation was assessed using the method of Born, (Nature 194:927-929 (1962)), incorporated herein by reference. Briefly, the change in light transmission was measured through a stirred suspension of platelets in an aggregometer (Model 400 VS, Chrono-Log, Hayertown, Pa., USA). […] In studies using thrombin, the PRP was gel-filtered on Sepharose 2B in divalent ion-free Tyrode's solution containing 2% BSA. For all studies, the reference standard was platelet-poor plasma, which was obtained by centrifuging PRP at 1000×g for 5 min.
All aggregation studies were performed at 37° C. with a constantly stirred suspension of 3×10^8 platelets/ml. (Platelet count was determined with the aid of a hemacytometer.) Peptides and stimulants were added to these suspensions in 1% dilutions. The PRP and gel-filtered platelets were used within three hours from the time of blood collection.
Peptide anti-aggregation potencies were determined from dose-responsive curves for the inhibition of the maximum aggregation responses stimulated by physiologic doses of ADP (10 μm) and thrombin (2 U/ml).
Using the method described in Example V to measure ex vivo inhibition of platelet aggregation and the method described in Example VII to measure bleeding, four additional peptides were tested. These peptides included 11J, 11Q, 11K and 11V.

For experiment [2], the system named is platelets. In kind it is cell-based. To be noted: substitution of Arg at position 4. On the procedure: Platelet aggregation was assessed using the method of Born, Nature 194:927-929 (1962), incorporated herein by reference. Briefly, the change in light transmission was measured through a stirred suspension of platelets in an aggregometer (Model 400 VS, Chrono-Log, Hayertown, Pa., USA). […] In studies using thrombin, the PRP was gel-filtered on Sepharose 2B in divalent ion-free Tyrode's solution containing 2% BSA. For all studies, the reference standard was platelet-poor plasma, which was obtained by centrifuging PRP at 1000×g for 5 min.
All aggregation studies were performed at 37° C. with a constantly stirred suspension of 3×10^8 platelets/mL. (Platelet count was determined with the aid of a hemacytometer.) Peptides and stimulants were added to these suspensions in 1% dilutions. The PRP and gel-filtered platelets were used within three hours from the time of blood collection.
The peptides described in this Example were synthesized according to the methods of Examples I and XI. Selectivity and potency were measured according to the methods of Examples II through XI. The peptide identification numbers used in this Example are consistent and relevant to this Example only. Some of the peptides are identified by other nomenclature elsewhere in this document.

Experiment [3] concerns the target vitronectin receptor (Vn-R). The experiment in a line: VnR binding, ELISA or liposome attachment assay (Table I). Set-up: species or system human. To be noted: purified receptor.
Description: Receptor and ligand purifications were performed according to the methods in this Example or those in Examaple XI.C. Receptors were purified according to the procedures of Pytela et al. (Methods Enzymol. 144:475 (1987)), incorporated herein by reference. […] Except where stated, all procedures were carried out at 4° C. The peptide column was washed with three volumes of Tris-buffered saline (TBS) containing 1 mM Ca^2+ and 25 mM OG and then with TBS containing 1 mM Ca^2+ and 25 mM octyl thioglucoside (OTG) at room temperature. […] Finally, Ca^2+ and Mg^+2 were added to eluted fractions to achieve final concentrations of 1 mM for both ions.
This assay was performed with minor modifications, according to the method of Pytela et al., Methods Enzymol. 144:475 (1987), incorporated herein by reference. Briefly, 1:4 mixture of labelled and unlabelled phosphatidylcholine (PC) liposomes was dissolved under nitrogen and diluted with an equal volume of purified receptor (purified as described in Example II) to achieve a fixed predetermined receptor-liposome concentration ratio. This mixture was then dialyzed overnight at 4° C. in phosphate buffered saline (PBS) containing 1 mM Ca^2+. An aliquot of the dialyzed sample was counted to assess radioactive content; the receptor-liposome mixture was then diluted to obtain a set radioactivity per unit volume.
Microtiter plates were coated with 10 μg of vitronectin. Non-specific sites were blocked for 2 hours at 37° C. in PBS containing 5 mg/ml BSA and 1 mM each of CaCl2 and MgCl2. The plates were then rinsed twice with PBS containing 1 mM Ca^+2 and Mg^+2, and 100 μl of the liposome-receptor mixture was added to each well. If necessary, peptides were added before this step in a 1-10% dilution. The plates were then incubated at 4° C. for 24 hours. The following day, the liquid in each well was aspirated and the plates were washed twice with PBS containing 1 mM Ca^+2 and Mg^+2. Finally, 100 μl of 2% SDS was added, the plates were shaken for 10-15 minutes, and the supernatants were collected, vortexed, and subjected to liquid scintillation counting. This procedure typically yielded ca. 1000 total and 100 non-specific counts per well.
In parallel studies with the platelet aggregation experiments (described in Example V), the apparent affinities of peptides for GP IIbIIa, fibronectin and vitronectin receptors were determined. Receptor-binding assays (as described in Examples III and IV) with purified receptors, were used to assess the abilities of the peptides to displace the binding of receptors to their receptor-specific ligands.
(§2) Those for VnR and GP IIb/IIIa were determined either by ELISA or liposome attachment assay (Example IV).
The target of experiment [4] is T1, Fibronectin receptor (Fn-R) (Homo sapiens, UniProt P05556+P08648).
T1 construct: Fibronectin receptor (Fn-R) was similarly purified from (100 mM) octyl glucoside-extracted human placenta; from tissue; host or cells: human placenta
The experiment in a line: FnR binding, competitive ELISA (Table I). Particulars: purified receptor, * concentrations unconfirmed by amino acid composition analysis.
Description: Peptide binding to purified Fn-R was determined by using a competitive enzyme-linked immunosorbent assay (ELISA) in which fibronectin is immobilized and the binding of solubilized Fn-R and the binding of solubilized FN-R, in the presence of various concentrations of peptide analogue, is detected with a polyclonal anti-Fn-R antibody followed by a labelled anti-rabbit IgG conjugate.
Microtiter plates were coated with 110 μl of human fibronectin (at 2 μg/ml) in TBS. The plates were washed three times with TBS that contained 0.05% Tween 20. 50 microliters of receptor in TBS containing 20 mM octylglucoside and 2 mM NmCl2 was added to each well. 50 microliters of peptide in the same buffer was then added in 10-fold serial dilutions. The plates were incubated for three hours at room temperature, washed with 200 μl of the above TBS-Tween buffer. 100 μl of affinity-purified rabbit anti-human fibronectin receptor antibody was added to the wells and the plates were incubated for an additional two hours, washed twice with TBS-Tween and then distilled water. Affinity-purified goat anti-rabbit IgG conjugated to horseradish peroxidase (100 μl) was then added to each well. Bonding reactions were incubated for 16 hours at room temperature. The following day, the plates were washed twice with TBS-Tween and then distilled water. […]
IC50 s for FnR were determined by ELISA (Example III).

Experiment [5] relates to coronary thrombosis. The experiment in a line: Electrically induced canine coronary thrombosis, time to full occlusion. In kind it is in vivo. To be noted: dog; for coronary thrombosis, time to full occlusion: 10 mg/kg. On the procedure:
Male mongrel dogs weighing 14 to 20 kg were selected based on proper aggregation of their platelets in response to arachidonic acid, collagen, and adenosine disphosphate (ADP) and based on similar weights and hemodynamic properties.
Before surgery, the animals were anesthetized with sodium pentobarbital (30 mg/kg, i.v.) and then intubated and ventilated on room air with positive pressure using a respirator (Harvard Apparatus, S. Natick, Mass.) at a volume of 30 ml/kg and a frequency of 12 breaths/min. Surgery, performed under aseptic conditions, was begun with the placement of cannulae into the left carotid artery and jugular vein for monitoring arterial blood pressure (Statham P23 pressure transducer, Gould, Inc., Cardiovascular Products, Oxnard, CA) and administering intravenous fluids.
The heart was exposed via a left thoracotomy through the 5th intercostal space. A 2-cm segment of the left circumflex coronary artery (LCCA) was isolated from surrounding tissue by blunt dissection. […] The intra-coronary electrode was constructed by attaching a 25-gauge hypodermic needle tip to a 30-gauge Teflon-insulated silver-coated copper wire. The mechanical occluder was constructed of stainless steel in a C shape with a Teflon screw (2 mm diameter) on top. It was adjusted to control vessel circumference and decrease the reactive hyperemic flow due to a 10-sec (full) occlusion by 50-70% without affecting basal coronary blood flow (FIG. 1C). A monopolar epicardial electrode was sutured to the surface of the ventricle in the region of LCCA distribution to monitor ischemic changes in the electrocardiogram (ECG). The left atrium was cannulated with polythylene tubing for administration of the peptide. Continuous recordings of blood pressure, limb lead II ECG, epicardial electrogram, and mean and phasic LCCA blood flow were obtained on a Model 7 polygraph (Grass Instrument Co., Quincy, Mass.).
One hour after the completion of surgery, a 100 micro-amp continuous anodal direct current delivered from a 9 volt nickel-cadmium battery was applied to the intimal surface of the LCCA. The anode of the battery was in series with a 250,000 ohm potentiometer and the intraluminal coronary artery electrode. The electric circuit was completed by placing the cathode in a subcutaneous site. Electrical stimulation was applied for three hours. At the conclusion of each experiment, the heart was fibrillated electrically and quickly removed, and the LCCA was dissected free as far as possible to verify the position of the implanted anodal electrode.
(§1) Animals were randomly assigned to two treatment groups: vehicle control (i.e., normal saline) or RGD peptides at various concentrations. Peptides were administered intra-atrially in both bolus and continuous injections. Each bolus injection consisted of 0.5 to 10 mg/kg and was administered 15 minutes before application of the current. A continuous infusion of the same peptide was then started immediately after completion of this initial injection. Animals received a 25 μg/kg/min to 200 μg/kg/min infusion. The anti-thrombotic effects of the peptides were monitored until 30 minutes after the occurrence of a persistent, occlusive thrombus or five hours after the initiation of electrical stimulation (whichever resulted first). If an occlusive thrombus had not developed within four hours after the initiation of current, the peptide infusion was stopped.
Coronary thrombosis was quantified as the time to full occlusion. The effects of the various peptide treatments on coronary thrombosis is illustrated in FIG. 4.

In experiment [6] the test system is platelets. The experiment in a line: Platelet aggregation on PRP of the peptide-treated baboon. In kind it is in vivo. Particulars: baboon animal 2, ADP 10 μm, 0, 1 and 2 hours. On the procedure: At one- and two-hour time points, template bleeding times were measured, and blood samples were drawn to assess the hematology aggregation studies. Platelet aggregation studies were performed as described in Example V using ADP as the stimulus.
In addition, platelet aggregation studies were conducted on PRP derived from the second animal. Whole blood was drawn at three time points (0, 1 and 2 hours) of both control and experimental shunts.

Experiment [7] relates to platelets. The experiment in a line: Ex vivo platelet aggregation in the canine coronary thrombosis study. Particulars: dog. On the procedure: For all ex vivo studies (see FIGS. 3A, 3B1, 3B2, 3B3, 3C1 and 3C2), control aggregation values were standardized to the percentages of light transmission observed in PRP and PPP samples (0% and 100%, respectively).
as §1
Platelet counts and ex vivo aggregation studies were performed one hour before and 1, 3, and 5 hours after application of anodal direct current.
Platelet aggregation was also determined ex vivo at one, three, and five hours after current application. For these studies, arachidonic acid, or collagen was again used to stimulate the platelets.

Experiment [8] deals with canine platelets. The experiment in a line: Canine platelet aggregation in vitro (ADP, arachidonic acid, collagen). Type of experiment: cell-based, dog. Particulars: stimulated by 10 μm ADP, […] arachidonic acid or 9.6 micrograms/ml collagen.
Experiment [9] relates to Gore-tex vascular graft thrombosis. The experiment in a line: Platelet and fibrinogen uptake by Gore-Tex grafts, baboon ex vivo shunt. In kind it is in vivo. On the procedure:
Adult male baboons (weighing 16 to 25 kg) were used in these studies. These were sedated with ketamine hydrochloride (200 to 250 mg intramuscular injection) and maintained under anesthesia with sodium pentobarbital (50 to 75 mg administered intravenously as necessary).
Twenty-four hours before the ex vivo shunt was established, platelets were isolated from 500 ml of blood from the test animal and labelled with ca. 500 microcuries of indium-111 oxine (Medi+Physics, Emeryville, Calif.), which irreversibly and specifically binds to platelets with an efficiency of 50%. Immediately after labelling, these platelets were then injected back into the animal and allowed to circulate for 24 hours. Immediately before the start of the study, fibrinogen that had been isolated from the animal and labelled with iodine-131 (DuPont Nuclear, Boston, Mass.) was also injected back into the animal. Also at this time, baseline determinations of the clotting and template bleeding times were made, and blood samples were drawn for hematology studies.
To establish the ex vivo shunt, the femoral artery and vein were percutaneously cannulated with introducer catheters (KMA Inc., Mansfield, Mass.). The catheters were then connected to medical-grade, heparin-coatedsilastic tubing (2.59 mm internal diameter, (Extracorporeal Medical Specialties, Inc., King of Prussia, Pa.). […] Finally, a 5 cm-long test segment of a 4 mm (internal diameter) vascular graft was inserted at the apex of the circuit. The graft used in these studies was Gore-tex (expanded polytetrafluoroethylene, (W. L. Gore and Associates, Inc., Flagstaff, Az). An electromagnetic flow probe was then inserted into the tubing circuit to measure blood flow, which was maintained at 100 ml/min. by varying the resistance imported by a partially occluding screw clamp that was distal to the probe. Finally, a 5 cm-long test segment of a 4 mm (internal diameter) vascular graft was inserted at the apex of the circuit. The graft used in these studies was Gore-tex (expanded polytetrafluoroethylene, W. L. Gore and Associates, Inc., Flagstaff, Ariz.).
Platelet deposition onto the grafts was monitored by dynamic scanning with a gamma camera (Sigma 400, Ohio Nuclear, Inc., Sohon, Ohio), which detects the gamma radiation emitted by the ^111 indium-labelled platelets. Once the circuit was in place, the animal was placed under this camera, and blood flow was initiated. Scans were then taken at the rate of one frame per two minutes for two hours. The data from these scans were collected on a dedicated Digital MDA computer (Maynard, Mass.). […]

Experiment [10] has as its system platelets. The experiment in a line: Thrombin-stimulated platelet aggregation (Table I). Particulars: read-out: Thrombin Stimulated Aggregation; thrombin 2 U/ml, gel-filtered platelets, 37° C.
The target of experiment [11] is GP IIb/IIIa (Homo sapiens, UniProt P05106+P08514). The experiment in a line: IIb/IIIa binding, ELISA or liposome attachment assay (Table I). Particulars: purified receptor. Set-up: Platelet glycoprotein IIb/IIIa was purified from outdated human platelets; from tissue; host or cells: outdated human platelets. On the technique in general: An ELISA detects its analyte on a solid surface through an enzyme-linked reagent.
Description: Microtiter plates, 96 wells were coated (Type Nunc 1 Maxispor™) with 10 μg/ml purified fibrinogen (100 μl/well), and allowed to stand overnight at 4° C. The plates were washed three times with PBS Tween, 0.137M NaCl, 0.003M KCl, 0.008M Na2 HPO4, pH 7.4 at room temperature, 0.05% Tween-20 and blocked for 1 to 2 hours at room temperature with 200 μl/well TNCNT (which is 0.5% BSA, 20 mM Tris, pH 7.5 at room temperature, 120 mM NaCl, 0.2% NAN3, 2 mM CaCl2, 0.05% Tween 20, [Calbiochem RIA grade or better]) on a plate shaker. The plates were again washed three times with PBS/Tween and 50 μl of sample in TNCNT is added. The mixture was incubated for 15 minutes at room temperature on a plate shaker. The stock solution of purified GPIIb IIIa receptor from human platelets, (0.4-1.0 mg/ml GPIIb IIIa in 0.1% Triton X-100, 1 mM CaCl2, 20 mM Tris, 150 mM NaCl, 0.05% NaN3 in 0.3M N-acetyl glucosamine pH 7.5, stored at -70° C.), was reconstituted in TNCNT. Fifty (50) μl of this diluted GPIIb IIIa was then added to each well and incubated on a plate shaker at room temperature. […] The optical density at 492 nm vs 405 nm was recorded and IC50 values are determined.
as §2

Where [12] appears, read: read-out: IC50 against canine platelet aggregation.
The mark [13] stands for this setting: baboon animal 1, two bolus IV injections of 10 mg/kg.
The mark [14] stands for this setting: baboon animal 2, 10 mg/kg bolus IV then 10 mg/kg/hr infusion for two hours.

Eleven substances from patent US5672585A, “Method and composition for treating thrombosis” (priority 1995, dated 1997) can be followed below.

Like-named read-outs stand apart in the source and are kept apart here.

T1 sequence (P08648 42-894 limits assumed): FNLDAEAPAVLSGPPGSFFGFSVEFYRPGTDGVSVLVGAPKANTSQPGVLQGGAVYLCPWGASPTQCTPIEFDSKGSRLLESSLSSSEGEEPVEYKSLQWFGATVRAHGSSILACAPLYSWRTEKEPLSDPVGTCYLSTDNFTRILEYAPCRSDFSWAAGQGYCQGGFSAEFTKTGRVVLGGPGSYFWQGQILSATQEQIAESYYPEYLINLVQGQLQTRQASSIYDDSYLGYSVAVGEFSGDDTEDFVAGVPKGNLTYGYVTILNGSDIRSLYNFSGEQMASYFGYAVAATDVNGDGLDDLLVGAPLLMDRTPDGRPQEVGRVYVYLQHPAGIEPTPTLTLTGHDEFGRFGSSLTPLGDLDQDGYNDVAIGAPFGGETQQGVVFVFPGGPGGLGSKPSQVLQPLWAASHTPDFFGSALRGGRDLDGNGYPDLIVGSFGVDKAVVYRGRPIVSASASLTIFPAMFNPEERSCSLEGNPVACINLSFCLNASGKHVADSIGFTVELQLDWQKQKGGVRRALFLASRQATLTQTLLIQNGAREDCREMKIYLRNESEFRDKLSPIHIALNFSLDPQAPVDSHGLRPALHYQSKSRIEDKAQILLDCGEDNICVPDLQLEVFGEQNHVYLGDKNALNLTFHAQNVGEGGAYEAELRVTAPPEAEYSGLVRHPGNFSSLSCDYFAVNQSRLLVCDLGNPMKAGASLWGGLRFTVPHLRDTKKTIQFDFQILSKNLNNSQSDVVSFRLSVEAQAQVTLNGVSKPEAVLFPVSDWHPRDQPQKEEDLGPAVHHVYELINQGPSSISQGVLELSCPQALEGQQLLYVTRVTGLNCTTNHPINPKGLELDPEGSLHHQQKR
T1 sequence (P08648 895-1049 partner limits assumed): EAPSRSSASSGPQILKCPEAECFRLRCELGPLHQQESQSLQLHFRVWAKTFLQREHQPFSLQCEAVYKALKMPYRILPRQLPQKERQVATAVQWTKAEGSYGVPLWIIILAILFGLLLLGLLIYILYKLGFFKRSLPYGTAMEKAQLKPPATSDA
T1 sequence (P05556 21-798): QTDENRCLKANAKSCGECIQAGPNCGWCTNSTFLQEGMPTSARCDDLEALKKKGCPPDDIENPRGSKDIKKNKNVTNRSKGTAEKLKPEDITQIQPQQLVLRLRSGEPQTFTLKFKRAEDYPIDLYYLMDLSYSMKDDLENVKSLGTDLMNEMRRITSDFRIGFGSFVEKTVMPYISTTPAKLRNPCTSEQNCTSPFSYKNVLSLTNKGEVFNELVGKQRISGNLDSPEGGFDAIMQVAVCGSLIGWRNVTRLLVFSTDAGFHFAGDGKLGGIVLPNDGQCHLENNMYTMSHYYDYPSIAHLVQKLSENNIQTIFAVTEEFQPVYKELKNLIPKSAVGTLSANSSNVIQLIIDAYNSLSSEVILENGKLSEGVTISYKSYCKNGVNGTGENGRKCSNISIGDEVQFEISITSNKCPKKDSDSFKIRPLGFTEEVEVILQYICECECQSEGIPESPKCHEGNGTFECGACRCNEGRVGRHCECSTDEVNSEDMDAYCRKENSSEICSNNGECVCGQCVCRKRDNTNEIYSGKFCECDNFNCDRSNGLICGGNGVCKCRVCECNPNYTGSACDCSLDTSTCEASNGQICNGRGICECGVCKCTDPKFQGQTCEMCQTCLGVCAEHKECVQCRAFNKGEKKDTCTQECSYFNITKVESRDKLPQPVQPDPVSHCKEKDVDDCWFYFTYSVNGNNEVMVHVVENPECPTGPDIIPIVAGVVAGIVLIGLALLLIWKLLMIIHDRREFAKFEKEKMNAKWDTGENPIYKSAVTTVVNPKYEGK
Chain of GP IIb/IIIa (P08514 32-887 limits assumed): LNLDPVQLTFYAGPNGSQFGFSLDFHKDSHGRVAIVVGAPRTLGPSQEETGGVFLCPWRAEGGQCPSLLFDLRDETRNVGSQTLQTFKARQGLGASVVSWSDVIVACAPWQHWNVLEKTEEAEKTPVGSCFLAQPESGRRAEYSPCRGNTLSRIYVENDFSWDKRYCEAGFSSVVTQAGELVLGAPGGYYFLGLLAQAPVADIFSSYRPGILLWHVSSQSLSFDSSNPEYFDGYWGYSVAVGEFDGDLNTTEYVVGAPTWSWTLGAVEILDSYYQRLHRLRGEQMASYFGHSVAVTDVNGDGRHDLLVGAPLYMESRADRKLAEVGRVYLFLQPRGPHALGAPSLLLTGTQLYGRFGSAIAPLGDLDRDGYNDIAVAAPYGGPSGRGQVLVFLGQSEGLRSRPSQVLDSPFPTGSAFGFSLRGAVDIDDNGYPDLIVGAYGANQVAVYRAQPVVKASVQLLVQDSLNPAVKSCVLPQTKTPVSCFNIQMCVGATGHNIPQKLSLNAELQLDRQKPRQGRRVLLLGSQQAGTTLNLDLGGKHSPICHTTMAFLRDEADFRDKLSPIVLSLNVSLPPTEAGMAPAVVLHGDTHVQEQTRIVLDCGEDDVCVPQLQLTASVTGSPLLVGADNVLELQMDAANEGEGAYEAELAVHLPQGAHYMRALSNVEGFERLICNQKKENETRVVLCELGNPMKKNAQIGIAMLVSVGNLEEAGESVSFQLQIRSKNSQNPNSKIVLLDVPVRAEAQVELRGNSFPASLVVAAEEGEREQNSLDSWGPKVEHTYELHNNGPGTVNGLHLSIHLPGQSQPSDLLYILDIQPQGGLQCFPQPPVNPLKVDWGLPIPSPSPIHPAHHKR
Chain of GP IIb/IIIa (P08514 891-1039 partner limits assumed): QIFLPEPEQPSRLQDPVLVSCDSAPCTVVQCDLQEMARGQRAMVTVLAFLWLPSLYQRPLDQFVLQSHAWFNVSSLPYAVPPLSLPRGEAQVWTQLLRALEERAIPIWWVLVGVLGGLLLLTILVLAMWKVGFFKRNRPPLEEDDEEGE
Chain of GP IIb/IIIa (P05106 27-788): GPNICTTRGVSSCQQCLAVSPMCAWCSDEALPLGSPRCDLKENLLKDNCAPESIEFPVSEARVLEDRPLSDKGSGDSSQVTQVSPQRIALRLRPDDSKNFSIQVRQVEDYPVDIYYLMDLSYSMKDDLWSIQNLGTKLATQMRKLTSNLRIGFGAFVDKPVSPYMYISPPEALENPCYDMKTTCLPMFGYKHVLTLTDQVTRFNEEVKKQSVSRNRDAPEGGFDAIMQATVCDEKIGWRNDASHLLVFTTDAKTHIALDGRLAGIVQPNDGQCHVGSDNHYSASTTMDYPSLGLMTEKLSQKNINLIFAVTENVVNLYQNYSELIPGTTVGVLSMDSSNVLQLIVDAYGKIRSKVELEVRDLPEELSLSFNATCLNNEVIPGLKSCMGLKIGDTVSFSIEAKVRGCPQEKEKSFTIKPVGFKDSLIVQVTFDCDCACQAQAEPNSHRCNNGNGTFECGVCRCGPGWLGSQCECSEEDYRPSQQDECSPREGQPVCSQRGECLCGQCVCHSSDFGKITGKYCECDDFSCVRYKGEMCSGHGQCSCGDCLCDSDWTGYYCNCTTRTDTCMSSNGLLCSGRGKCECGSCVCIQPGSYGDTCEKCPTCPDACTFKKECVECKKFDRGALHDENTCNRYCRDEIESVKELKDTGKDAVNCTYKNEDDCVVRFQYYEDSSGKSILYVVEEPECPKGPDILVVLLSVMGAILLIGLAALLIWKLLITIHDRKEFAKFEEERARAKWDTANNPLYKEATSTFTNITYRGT

Take Ac- CNPKGD(Y--OMe)RC--NH2 [Peptide 11Q]: in experiment [1], the “ex vivo inhibition of platelet aggregation (%)” value (“ex vivo inhibition … (%)” below) was more than 95% and the “ex vivo platelet aggregation” value was “inhibited ex vivo platelet aggregation”.
With “Ac- CNPRGD(Y--OMe)(Nle)C--NH2 [Peptide 11V]”, in experiment [1], the “ex vivo inhibition … (%)” value is on record as more than 98% and the “ex vivo platelet aggregation” value is “inhibited ex vivo platelet aggregation”.
Take Ac- CNPRGD(Y--OMe)AC--NH2 [Peptide 11K]: the “platelet aggregation potency compared with analogue 32” value in experiment [2] is reported as “substantial decreases in platelet aggregation potency”. Besides, in [1], the “ex vivo inhibition … (%)” value is more than 98% and the “ex vivo platelet aggregation” value is recorded as “inhibited ex vivo platelet aggregation”.
With Ac- CNPRGD(Y--OMe)EC--NH2 [Peptide 11J], in experiment [2], the “decrease in platelet aggregation potency relative to analogue 32” value was found to be 15 fold. Further, in experiment [1], the “ex vivo inhibition … (%)” value is given as more than 98% and the “ex vivo platelet aggregation” value is on record as “inhibited ex vivo platelet aggregation”.
As for FRGDSPDG, the IC50 in [3] stood at 40 nM; in experiment [4], 2400 nM.
For G(Pen)GHRGDLRCA [Peptide 2G], the “coronary thrombosis, time to full occlusion” value in experiment [5] was “did not significantly influence this frequency”. In [6], the “platelet aggregation in PRP” value is listed as “completely unresponsive”. Also, the “ex vivo ADP-stimulated aggregation” value in experiment [7] (10 mg/kg injected, 1, 3 and 5 h) is recorded as “substantially inhibited”. The IC50 in experiment [8] (setting [12]) is 15000 to 30000 nM. For the same substance, in experiment [9] (setting [13]), the “reduction in 111In-platelet uptake by graft” value was determined as 90% and the “reduction in 131I-fibrinogen uptake by graft” value was found to be 79%. For the same substance, in [9] (setting [14]), the “reduction in labelled fibrinogen uptake by graft” value is 78% and the “reduction in labelled platelet uptake by graft” value is 84%.
As for GRGDSP [reference compound], the IC50 in [8] (read-out: concentration inhibiting all three canine platelet aggregation responses by 50%) is approximately 130000 nM.
In turn, LRGDSPDG returned an IC50 in experiment [3] of 200 nM.
In the case of R(Pen)GRGDWPCR [Peptide 4R], the “coronary thrombosis, occlusion” value in experiment [5] (3 mg/kg) was “ineffective”. Besides, the “coronary thrombosis, time to full occlusion” value in [5] is given as “prevented occlusion throughout the duration of the study”. Moreover, the “ex vivo platelet aggregation by ADP, AA and collagen” value in experiment [7] (10 mg/kg injection) was “unresponsive to all modes of stimulation at all time points”. Further, the IC50 was 1500 to 5000 nM in experiment [8] (setting [12]) and 530 nM in experiment [10].
With VRGDSPDG, the results for the IC50 in [11], in experiment [3] and in experiment [4] were 270 nM, 240 nM and 40 nM, respectively.
Substance YRGDSPDG gave an IC50 in [3] of 80 nM.
